The values that follow come from ChEMBL document CHEMBL1140025, “Antimicrobial activity of rationally designed amino terminal modified peptides” (Bioorg Med Chem Lett, 2007).

A short description of series [1]: Toxicity against human red blood cells assessed as lysis upto 1000 ug/mL. The class given is cell-based, Erythrocyte. The note with it: read-out: Activity.
In a further series the test system is Staphylococcus aureus. In words: Antibacterial activity against Staphylococcus aureus MTCCB 96. The class given is functional.
In the next series the test system is Pseudomonas aeruginosa. In words: Antibacterial activity against Pseudomonas aeruginosa MTCCB 741. The class given is functional.
Series [2] concerns Escherichia coli. In words: Antibacterial activity against Escherichia coli MTCCB 1610. The class given is functional.
The subject of series [3] is Escherichia coli. The experiment in a line: Antibacterial activity against Escherichia coli.
Another series deals with Bacillus subtilis. The experiment in a line: Antibacterial activity against Bacillus subtilis NCIM 2063. It counts as functional.

Values after ≈ are worked out from the molar mass of the structure shown. Where a SMILES comes first, the peptide text is derived from it. [ ]: non-standard residue; d: D form. The star is where a group is joined. Desaminotyrosyl = O=C(CCc1ccc(O)cc1)*; X1 = O=C(/C=C/c1ccc(O)cc1)*; Orn = NCCC[C@H](N)C(=O)O; X2 = O=C(/C=C/c1ccccc1)* Where only a bound is given, the exact number is not on record here.

Consider `NC(=O)[C@H](Cc1c[nH]c2ccccc12)NC(=O)[C@H](Cc1c[nH]c2ccccc12)NC(=O)/C=C/c1ccc(O)cc1`, for which the hemolysis in series [1] came to 0%. Moreover, the MIC is 2 µg/mL (≈ 3.73 µM) in the series with Staphylococcus aureus; below 512 µg/mL in the series with Pseudomonas aeruginosa; below 512 µg/mL with Escherichia coli [2]; below 512 µg/mL against Escherichia coli [3]; 1 µg/mL (≈ 1.87 µM) against Bacillus subtilis.
For the compound `CC(=O)N[C@@H](CCCN)C(=O)N[C@@H](CCCN)C(=O)N[C@@H](Cc1c[nH]c2ccccc12)C(=O)N[C@@H](Cc1c[nH]c2ccccc12)C(N)=O` (Ac-[Orn][Orn]WW-NH2), the hemolysis in series [1] was 0%. In addition, the MIC in the series on Staphylococcus aureus was found to be 2 µg/mL (≈ 3.03 µM); in the series with Pseudomonas aeruginosa, 128 µg/mL (≈ 194 µM); in the series on Escherichia coli [2], 32 µg/mL (≈ 48.5 µM); against Escherichia coli [3] it was 128 µg/mL (≈ 194 µM); against Bacillus subtilis, 2 µg/mL (≈ 3.03 µM).
As for `NCCC[C@H](NC(=O)CCc1ccc(O)cc1)C(=O)N[C@@H](CCCN)C(=O)N[C@@H](Cc1c[nH]c2ccccc12)C(=O)N[C@@H](Cc1c[nH]c2ccccc12)C(N)=O` (Desaminotyrosyl-[Orn][Orn]WW-NH2), in series [1], the hemolysis turned out to be 0%. For the same compound, the MIC with Staphylococcus aureus was determined as 1 µg/mL (≈ 1.31 µM); against Pseudomonas aeruginosa, 32 µg/mL (≈ 41.8 µM); against Escherichia coli [2] it was 2 µg/mL (≈ 2.61 µM); in the series with Escherichia coli [3], 4 µg/mL (≈ 5.22 µM); in the series with Bacillus subtilis it was 2 µg/mL (≈ 2.61 µM).
As for `NCCC[C@H](NC(=O)[C@@H](N)CCCN)C(=O)N[C@@H](Cc1c[nH]c2ccccc12)C(=O)N[C@@H](Cc1c[nH]c2ccccc12)C(N)=O` (H-[Orn][Orn]WW-NH2), the hemolysis in series [1] came to 0%. In addition, the minimum inhibitory concentration (MIC) in the series on Staphylococcus aureus worked out at 128 µg/mL (≈ 207 µM); against Pseudomonas aeruginosa it was 256 µg/mL (≈ 414 µM); against Escherichia coli [2], 512 µg/mL (≈ 829 µM); in the series on Escherichia coli [3], 256 µg/mL (≈ 414 µM); against Bacillus subtilis, 512 µg/mL (≈ 829 µM).
Turning to `NCCC[C@H](NC(=O)/C=C/c1ccc(O)cc1)C(=O)N[C@@H](CCCN)C(=O)N[C@@H](Cc1ccccc1)C(=O)N[C@@H](Cc1ccccc1)C(N)=O` (X1-[Orn][Orn]FF-NH2), the hemolysis in series [1] was 0%. Besides, the MIC with Staphylococcus aureus is 32 µg/mL (≈ 46.7 µM); against Pseudomonas aeruginosa it was 2 µg/mL (≈ 2.92 µM); in the series on Escherichia coli [2] it was 4 µg/mL (≈ 5.83 µM); in the series with Escherichia coli [3], 8 µg/mL (≈ 11.7 µM); against Bacillus subtilis, 2 µg/mL (≈ 2.92 µM).
On to `NCCC[C@H](NC(=O)/C=C/c1ccc(O)cc1)C(=O)N[C@@H](CCCN)C(=O)N[C@@H](Cc1c[nH]c2ccccc12)C(=O)N[C@@H](Cc1c[nH]c2ccccc12)C(N)=O` (X1-[Orn][Orn]WW-NH2), for which the hemolysis in series [1] is 0%. Further, the MIC against Staphylococcus aureus stood at 2 µg/mL (≈ 2.62 µM); in the series on Pseudomonas aeruginosa, 2 µg/mL (≈ 2.62 µM); in the series with Escherichia coli [2], 16 µg/mL (≈ 20.9 µM); in the series with Escherichia coli [3], 8 µg/mL (≈ 10.5 µM); against Bacillus subtilis, 1 µg/mL (≈ 1.31 µM).
Turning to `NCCC[C@H](NC(=O)/C=C/c1ccc(O)cc1)C(=O)N[C@@H](CCCN)C(=O)N[C@@H](Cc1c[nH]c2ccccc12)C(=O)N[C@@H](Cc1c[nH]c2ccccc12)C(=O)O` (X1-[Orn][Orn]WW-OH), the hemolysis in series [1] was 0%. Also, the MIC in the series with Staphylococcus aureus is 128 µg/mL (≈ 167 µM); against Pseudomonas aeruginosa, 64 µg/mL (≈ 83.7 µM); in the series on Escherichia coli [2], 64 µg/mL (≈ 83.7 µM); against Escherichia coli [3], 128 µg/mL (≈ 167 µM); in the series with Bacillus subtilis it was 128 µg/mL (≈ 167 µM).
For `NCCC[C@H](NC(=O)/C=C/c1ccccc1)C(=O)N[C@@H](CCCN)C(=O)N[C@@H](Cc1c[nH]c2ccccc12)C(=O)N[C@@H](Cc1c[nH]c2ccccc12)C(N)=O` (X2-[Orn][Orn]WW-NH2), the hemolysis in series [1] is 0%. The MIC is 2 µg/mL (≈ 2.67 µM) against Staphylococcus aureus; 16 µg/mL (≈ 21.4 µM) against Pseudomonas aeruginosa; 2 µg/mL (≈ 2.67 µM) against Escherichia coli [2]; 4 µg/mL (≈ 5.35 µM) against Escherichia coli [3]; 32 µg/mL (≈ 42.8 µM) with Bacillus subtilis.
In the case of `CN(C)[C@@H]1C(O)=C(C(N)=O)C(=O)[C@@]2(O)C(O)=C3C(=O)c4c(O)cccc4[C@@](C)(O)[C@H]3C[C@@H]12` [TETRACYCLINE], the MIC in the series with Staphylococcus aureus is 0.25 µg/mL (≈ 0.563 µM); with Pseudomonas aeruginosa it was 1 µg/mL (≈ 2.25 µM); with Escherichia coli [2] it was 0.5 µg/mL (≈ 1.13 µM); in the series with Escherichia coli [3], 2 µg/mL (≈ 4.5 µM); in the series with Bacillus subtilis it was 0.125 µg/mL (≈ 0.281 µM).
For GENTAMICIN, the MIC with Staphylococcus aureus amounted to 0.062 µg/mL; in the series with Pseudomonas aeruginosa it was 1 µg/mL; with Escherichia coli [2], 0.25 µg/mL; with Bacillus subtilis, 0.03 µg/mL.

Broadly, the MIC is the smallest concentration in the dilution series that meets the test's criterion for growth inhibition. A low value points to greater potency.
